Data on 2 compounds can be found in doi:10.1101/2022.09.08.507076v2 (biorxiv, 2022).

Type in all cases: biochemical
In test [1] the target is T1, CYP1A2 (Homo sapiens, UniProt P05177).
T1 sequence (P05177 2-516): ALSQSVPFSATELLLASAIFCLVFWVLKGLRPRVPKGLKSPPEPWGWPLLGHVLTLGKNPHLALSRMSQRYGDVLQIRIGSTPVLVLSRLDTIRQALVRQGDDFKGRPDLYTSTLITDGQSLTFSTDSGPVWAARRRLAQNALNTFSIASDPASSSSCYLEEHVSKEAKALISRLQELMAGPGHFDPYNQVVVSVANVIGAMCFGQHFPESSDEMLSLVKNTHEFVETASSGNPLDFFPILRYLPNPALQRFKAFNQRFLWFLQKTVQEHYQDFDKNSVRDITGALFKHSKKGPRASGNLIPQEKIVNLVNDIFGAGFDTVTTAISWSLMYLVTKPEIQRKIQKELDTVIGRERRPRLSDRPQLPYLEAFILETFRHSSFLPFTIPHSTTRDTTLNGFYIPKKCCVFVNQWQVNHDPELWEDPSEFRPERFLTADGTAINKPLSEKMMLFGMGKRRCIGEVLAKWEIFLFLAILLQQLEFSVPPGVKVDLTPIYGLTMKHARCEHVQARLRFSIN
The experiment in a line: recombinant CYP inhibition, fluorescence.

Test [2] concerns the target human topoisomerase IIα (Homo sapiens, UniProt P11388). The experiment in a line: human topoisomerase IIα decatenation assay.
In test [3] the target is CYP2C19 (Homo sapiens, UniProt P33261). Put plainly: recombinant CYP inhibition, fluorescence.
Test [4] has as its target CYP2D6 (Homo sapiens, UniProt P10635). The experiment in a line: recombinant CYP inhibition, fluorescence.
Test [5] addresses CYP3A4 (Homo sapiens, UniProt P08684). Put plainly: recombinant CYP inhibition, fluorescence.
In test [6] the target is CYP2C9 (Homo sapiens, UniProt P11712). Put plainly: recombinant CYP inhibition, fluorescence.
CYP2C9, sequence (P11712 whole entry): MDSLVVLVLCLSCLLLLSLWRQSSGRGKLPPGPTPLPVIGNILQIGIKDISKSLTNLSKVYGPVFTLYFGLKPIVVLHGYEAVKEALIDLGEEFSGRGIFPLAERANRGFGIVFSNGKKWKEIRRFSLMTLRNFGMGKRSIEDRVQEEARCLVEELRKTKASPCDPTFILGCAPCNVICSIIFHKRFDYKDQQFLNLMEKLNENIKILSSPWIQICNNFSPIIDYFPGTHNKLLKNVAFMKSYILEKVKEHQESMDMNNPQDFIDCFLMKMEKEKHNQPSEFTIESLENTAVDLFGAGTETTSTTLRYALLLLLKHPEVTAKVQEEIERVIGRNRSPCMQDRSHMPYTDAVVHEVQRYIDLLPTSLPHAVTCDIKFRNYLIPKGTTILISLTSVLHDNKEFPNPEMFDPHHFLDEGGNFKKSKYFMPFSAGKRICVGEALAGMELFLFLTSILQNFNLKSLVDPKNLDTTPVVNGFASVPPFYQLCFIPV

human topoisomerase IIα, sequence (P11388 whole entry): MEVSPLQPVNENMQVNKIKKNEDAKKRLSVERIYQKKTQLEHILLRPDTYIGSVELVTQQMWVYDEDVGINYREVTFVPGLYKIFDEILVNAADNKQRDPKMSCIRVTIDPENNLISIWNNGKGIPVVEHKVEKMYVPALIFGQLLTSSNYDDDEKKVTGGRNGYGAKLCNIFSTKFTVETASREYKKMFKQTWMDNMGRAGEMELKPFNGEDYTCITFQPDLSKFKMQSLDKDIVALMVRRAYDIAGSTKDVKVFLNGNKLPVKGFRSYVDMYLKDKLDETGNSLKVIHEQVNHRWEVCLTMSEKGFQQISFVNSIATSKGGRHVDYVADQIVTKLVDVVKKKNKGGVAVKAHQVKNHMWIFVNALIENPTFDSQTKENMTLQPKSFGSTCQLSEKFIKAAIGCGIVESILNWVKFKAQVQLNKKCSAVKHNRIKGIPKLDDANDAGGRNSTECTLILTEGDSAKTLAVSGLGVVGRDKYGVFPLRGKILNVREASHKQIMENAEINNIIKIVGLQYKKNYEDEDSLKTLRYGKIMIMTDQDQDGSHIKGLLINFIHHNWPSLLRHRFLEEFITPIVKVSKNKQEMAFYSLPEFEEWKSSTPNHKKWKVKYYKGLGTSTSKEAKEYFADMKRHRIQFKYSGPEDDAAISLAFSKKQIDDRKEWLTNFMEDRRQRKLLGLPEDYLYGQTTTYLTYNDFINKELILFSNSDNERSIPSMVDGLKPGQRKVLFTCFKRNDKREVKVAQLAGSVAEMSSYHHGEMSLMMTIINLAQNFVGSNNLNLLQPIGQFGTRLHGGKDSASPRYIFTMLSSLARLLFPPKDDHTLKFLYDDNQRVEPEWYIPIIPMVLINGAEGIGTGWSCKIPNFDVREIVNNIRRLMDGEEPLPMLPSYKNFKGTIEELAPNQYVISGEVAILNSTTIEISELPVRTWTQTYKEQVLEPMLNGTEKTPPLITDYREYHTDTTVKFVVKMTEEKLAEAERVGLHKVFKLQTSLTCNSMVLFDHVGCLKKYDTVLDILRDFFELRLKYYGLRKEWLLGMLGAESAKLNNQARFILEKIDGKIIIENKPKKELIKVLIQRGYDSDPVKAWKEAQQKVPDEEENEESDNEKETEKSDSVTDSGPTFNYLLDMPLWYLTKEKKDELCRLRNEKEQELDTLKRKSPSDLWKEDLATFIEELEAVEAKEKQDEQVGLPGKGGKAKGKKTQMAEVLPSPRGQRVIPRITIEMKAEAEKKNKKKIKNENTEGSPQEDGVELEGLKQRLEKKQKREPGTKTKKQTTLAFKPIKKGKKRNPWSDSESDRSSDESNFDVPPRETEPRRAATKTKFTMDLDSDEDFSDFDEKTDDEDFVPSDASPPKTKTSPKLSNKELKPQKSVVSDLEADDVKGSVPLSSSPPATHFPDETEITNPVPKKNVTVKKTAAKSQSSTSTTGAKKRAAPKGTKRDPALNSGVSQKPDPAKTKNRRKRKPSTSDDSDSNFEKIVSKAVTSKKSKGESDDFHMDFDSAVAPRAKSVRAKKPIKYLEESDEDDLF
CYP3A4, sequence (P08684 2-503): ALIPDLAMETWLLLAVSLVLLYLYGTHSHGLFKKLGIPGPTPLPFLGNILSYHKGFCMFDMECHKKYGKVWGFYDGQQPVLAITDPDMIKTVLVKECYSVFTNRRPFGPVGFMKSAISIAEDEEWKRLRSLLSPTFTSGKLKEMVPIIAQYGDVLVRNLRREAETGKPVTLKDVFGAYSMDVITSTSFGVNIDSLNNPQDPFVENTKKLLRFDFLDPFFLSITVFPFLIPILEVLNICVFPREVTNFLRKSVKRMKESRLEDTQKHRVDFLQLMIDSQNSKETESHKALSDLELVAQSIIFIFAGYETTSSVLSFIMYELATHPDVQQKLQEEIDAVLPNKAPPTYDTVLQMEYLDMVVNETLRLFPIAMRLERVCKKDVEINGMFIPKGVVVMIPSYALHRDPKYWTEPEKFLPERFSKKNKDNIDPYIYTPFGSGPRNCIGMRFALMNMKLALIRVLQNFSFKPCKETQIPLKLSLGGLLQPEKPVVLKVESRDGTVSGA
CYP2D6, sequence (P10635 whole entry): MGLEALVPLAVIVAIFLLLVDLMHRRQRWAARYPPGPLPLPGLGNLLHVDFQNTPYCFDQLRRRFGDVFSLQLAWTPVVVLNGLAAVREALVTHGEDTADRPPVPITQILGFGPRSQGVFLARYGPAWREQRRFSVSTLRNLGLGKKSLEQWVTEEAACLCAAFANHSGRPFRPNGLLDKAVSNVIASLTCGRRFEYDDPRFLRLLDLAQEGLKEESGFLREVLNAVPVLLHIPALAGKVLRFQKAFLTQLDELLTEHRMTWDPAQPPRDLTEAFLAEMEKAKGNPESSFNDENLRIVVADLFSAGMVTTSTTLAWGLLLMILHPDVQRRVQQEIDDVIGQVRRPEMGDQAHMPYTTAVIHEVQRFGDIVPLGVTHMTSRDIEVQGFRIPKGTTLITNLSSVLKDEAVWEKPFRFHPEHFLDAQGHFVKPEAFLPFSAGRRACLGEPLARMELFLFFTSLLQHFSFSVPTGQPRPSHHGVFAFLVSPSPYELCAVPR
CYP2C19, sequence (P33261 whole entry): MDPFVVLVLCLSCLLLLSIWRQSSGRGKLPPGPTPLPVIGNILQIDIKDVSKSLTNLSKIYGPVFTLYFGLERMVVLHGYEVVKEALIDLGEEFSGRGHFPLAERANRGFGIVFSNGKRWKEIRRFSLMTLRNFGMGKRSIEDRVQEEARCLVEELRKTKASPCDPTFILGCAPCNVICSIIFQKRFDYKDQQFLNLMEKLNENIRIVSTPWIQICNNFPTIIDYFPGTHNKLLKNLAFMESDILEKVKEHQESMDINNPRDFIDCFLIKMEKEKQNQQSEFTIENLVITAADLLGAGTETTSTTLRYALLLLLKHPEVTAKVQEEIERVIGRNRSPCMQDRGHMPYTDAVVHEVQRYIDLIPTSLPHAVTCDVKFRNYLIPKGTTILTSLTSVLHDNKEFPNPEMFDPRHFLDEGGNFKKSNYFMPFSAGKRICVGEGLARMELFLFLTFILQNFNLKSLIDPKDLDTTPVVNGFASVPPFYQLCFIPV

For the compound `CCNC(=O)Nc1nc2c(F)c(-c3cnc(N4CCC(C(=O)O)CC4)nc3)cc(-c3ccccn3)c2s1` [RBx 10080758], the IC50 was over 10 µM in test [1]; over 959 µM in test [2]; over 10 µM in test [3]; over 10 µM in test [4]; over 10 µM in test [5]; over 10 µM in test [6].

As for `CCNC(=O)Nc1nc2c(F)c(-c3ccc(COP(=O)(O)O)nc3)cc(-c3ccccn3)c2s1` [RBx 10115912], the IC50 in test [1] is over 10 µM; in test [2], over 993 µM; in test [3] it was over 10 µM; in test [4], over 10 µM; in test [5], over 10 µM; in test [6], over 10 µM.
